Compound | melting point [°C]
Cc1cc(-c2cc(C(F)(F)F)n3ncc(C#Cc4cccc(S(=O)(=O)NC(C)(C)CO)c4)c3n2)ccc1Cl [Example 102, 3-[5-(4-Chloro-3-methyl-phenyl)-7-trifluoromethyl-pyrazolo[1,5-a]pyrimidin-3-ylethynyl]-N-(2-hydroxy-1,1-dimethyl-ethyl)-benzenesulfonamide] | 204
Nc1ncc(C#Cc2cnn3c(C(F)(F)F)cc(-c4ccc(C(F)(F)F)cc4)nc23)cc1C(F)(F)F [Example 222, 3-Trifluoromethyl-5-[7-trifluoromethyl-5-(4-trifluoromethyl-phenyl)-pyrazolo[1,5-a]pyrimidin-3-ylethynyl]-pyridin-2-ylamine] | 230
Cc1cc(-c2ccc(C(F)(F)F)cc2)cn2c(C#Cc3cnc(N)nc3)cnc12 [Example 220, 5-[8-Methyl-6-(4-trifluoromethyl-phenyl)-imidazo[1,2-a]pyridin-3-ylethynyl]-pyrimidin-2-ylamine] | 236
NS(=O)(=O)c1ccc(C#Cc2cnn3c(C(F)(F)F)cc(-c4cccc(C(F)(F)F)c4)nc23)s1 [Example 119, 5-[7-Trifluoromethyl-5-(3-trifluoromethyl-phenyl)-pyrazolo[1,5-a]pyrimidin-3-ylethynyl]-thiophene-2-sulfonic acid amide] | 250
CC(O)c1ccc(C#Cc2cnc3c(C(F)(F)F)cc(-c4ccc(C(F)(F)F)cc4)cn23)cc1 (stereo not drawn) [Example 195, 1-{4-[8-Trifluoromethyl-6-(4-trifluoromethyl-phenyl)-imidazo[1,2-a]pyridin-3-ylethynyl]-phenyl}-ethanol] | 157 to 158
NS(=O)(=O)c1cc(C#Cc2cnn3c(C(F)F)cc(-c4cccc(C(F)(F)F)c4)nc23)c(F)cc1F [Example 166, 5-[7-Difluoromethyl-5-(3-trifluoromethyl-phenyl)-pyrazolo[1,5-a]pyrimidin-3-ylethynyl]-2,4-difluoro-benzenesulfonamide] | 277

Further lines, results first:

melting point [°C] | Compound
206 to 208 | O=S(=O)(NCCO)c1ccc(C#Cc2cnn3c(C(F)(F)F)cc(-c4ccc(C(F)(F)F)cc4)nc23)cc1 [Example 125, N-(2-Hydroxy-ethyl)-4-[7-trifluoromethyl-5-(4-trifluoromethyl-phenyl)-pyrazolo[1,5-a]pyrimidin-3-ylethynyl]-benzenesulfonamide]
224 to 226 | NS(=O)(=O)c1ccc(C#Cc2cnn3ccc(-c4ccc(C(F)(F)F)cc4)nc23)s1 [Example 311, 5-[5-(4-Trifluoromethyl-phenyl)-pyrazolo[1,5-a]pyrimidin-3-ylethynyl]-thiophene-2-sulfonic acid amide]
187 | CC(C)(C)NS(=O)(=O)c1ccc(C#Cc2cnn3c(C(F)F)cc(-c4ccc(C(F)(F)F)cc4)nc23)s1 [Example 165, 5-[7-Difluoromethyl-5-(4-trifluoromethyl-phenyl)-pyrazolo[1,5-a]pyrimidin-3-ylethynyl]-thiophene-2-sulfonic acid tert-butylamide]
228 to 230 | NS(=O)(=O)c1ccc(C#Cc2cnn3c(C4CC4)cc(-c4ccc(C(F)(F)F)cc4)nc23)cc1 [Example 76, 4-[7-Cyclopropyl-5-(4-trifluoromethyl-phenyl)-pyrazolo[1,5-a]pyrimidin-3-ylethynyl]-benzenesulfonamide]
262 to 264 | NS(=O)(=O)c1cccc(C#Cc2cnn3c(C4CC4)cc(-c4ccc(C(F)(F)F)cc4)nc23)c1 [Example 84, 3-[7-Cyclopropyl-5-(4-trifluoromethyl-phenyl)-pyrazolo[1,5-a]pyrimidin-3-ylethynyl]-benzenesulfonamide]
> 288 | O=S(=O)(O)c1cncc(C#Cc2cnn3c(C(F)(F)F)cc(-c4ccc(C(F)(F)F)cc4)nc23)c1 [Example 37, 5-[7-Trifluoromethyl-5-(4-trifluoromethyl-phenyl)-pyrazolo[1,5-a]pyrimidin-3-ylethynyl]-pyridine-3-sulfonic acid]
